Structures are written as SMILES.

Experiment [1] relates to Aßo/PrP^C interaction in stably PrP^C-transfected CV1 cells. The format is cell-based, rat.
Experiment [2] deals with APP/PS1 transgenic Alzheimer's model mice. Put plainly: Morris water maze in APP/PS1 mice. The format is in vivo, mouse. The conditions noted are these: fresh ceftazidime (as Fortaz) 100 mg/kg IP BID. On the procedure: For Morris water maze, mice were randomly assigned to treatment groups and the experimenter was unaware of both genotype and treatment group. Groups were balanced for age, sex, and weight. Mice used were 12-14 months of age at experiment initiation. During treatment, the experimenter was blinded to genotype. For drug treated mice, Poly(4-styrenesulfonic acid co-maleic acid) was administered by twice daily oral gavage of 5.0 mg and 15.0 mg Poly(4-styrenesulfonic acid co-maleic acid) per kg body weight in a vehicle of 0.5% w/v hydroxypropyl methylcellulose and 0.1% w/v polysorbate 80 to APP/PS1 and WT mice, respectively. Vehicle treated animals were gavaged twice daily with vehicle. 500 mg ceftazidime as Fortaz was dissolved per manufacturer's instructions in 1.5 ml sterile milliQ H2O to obtain 333 mg/ml in sodium carbonate solution. Animals treated peripherally with fresh ceftazidime were injected directly after dissolution intraperitoneally with 100 mg ceftazidime per kg body weight in a vehicle of PBS. Animals treated centrally with aged ceftazidime were fitted with an intracerebroventricular cannula (Alzet brain infusion kit 0008663) and subcutaneous osmotic minipump (Alzet model 1004) loaded with aged ceftazidime diluted in PBS. All animals were treated for 4 weeks prior to the Morris water maze and throughout assessment. […]

Turning to `CO/N=C(\C(=O)N[C@@H]1C(=O)N2C(C(=O)O)=C(COC(C)=O)CS[C@H]12)c1csc(N)n1` [cefotaxime], in experiment [1], the “Aßo/PrP^C interaction-inhibiting activity, aged drug” value is listed as “zero activity” and the “Aßo/PrP^C interaction-inhibiting activity, fresh drug” value is reported as “zero activity”.
Consider `CC(C)(O/N=C(\C(=O)N[C@@H]1C(=O)N2C(C(=O)[O-])=C(C[n+]3ccccc3)CS[C@H]12)c1csc(N)n1)C(=O)O` [ceftazidime], for which, in experiment [2], the “MWM latency to hidden platform, effect of treatment” value was “no detectable effect”. In experiment [1], the “Aßo/PrP^C interaction-inhibiting activity, aged drug” value was “exhibited activity”.
`CO/N=C(\C(=O)N[C@@H]1C(=O)N2C(C(=O)O)=C(CSc3nc(=O)c(=O)[nH]n3C)CS[C@H]12)c1csc(N)n1` [ceftriaxone]: in experiment [1], the “Aßo/PrP^C interaction-inhibiting activity, aged drug” value was “zero activity” and the “Aßo/PrP^C interaction-inhibiting activity, fresh drug” value is “zero activity”.

The values are drawn from US12419905B2, “Methods and compositions for the treatment of amyloid-related disorders” (YALE UNIVERSITY, priority 2018, dated 2025).
